Source: patent publication US20040258695A1, “Transferrin binding peptides and uses thereof” (priority 2003, published 2004)

T1: HRP alone (UniProt P00433 31-338)
T1 construct: Negative control probe for library 2; also called horseradish peroxidase
T1 sequence: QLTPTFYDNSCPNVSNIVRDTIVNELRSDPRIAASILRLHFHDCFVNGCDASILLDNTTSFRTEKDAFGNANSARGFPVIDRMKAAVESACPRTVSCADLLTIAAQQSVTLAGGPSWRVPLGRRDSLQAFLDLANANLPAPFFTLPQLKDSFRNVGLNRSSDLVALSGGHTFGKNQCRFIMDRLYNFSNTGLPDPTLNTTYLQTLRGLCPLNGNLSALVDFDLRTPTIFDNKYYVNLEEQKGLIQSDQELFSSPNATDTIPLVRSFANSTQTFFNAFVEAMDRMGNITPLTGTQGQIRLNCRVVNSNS

B1: M. catarrhalis TbpB N-lobe peptide fsevkensqagwyyg (peptide)
peptide: FSEVKENSQAGWYYG
notes: SPOT peptide immobilised on cellulose membrane
B2: M. catarrhalis TbpB N-lobe peptide nfkekkltgklfsnl (peptide)
peptide: NFKEKKLTGKLFSNL
notes: as for B1
B3: M. catarrhalis TbpB N-lobe peptide kkltgklfsnlqdrh (peptide)
peptide: KKLTGKLFSNLQDRH
notes: as for B1
B4: M. catarrhalis TbpB N-lobe peptide gklfsnlqdrhkgnv (peptide)
peptide: GKLFSNLQDRHKGNV
notes: as for B1
B5: M. catarrhalis TbpB N-lobe peptide kterydidanihgnr (peptide)
peptide: KTERYDIDANIHGNR
notes: as for B1
B6: M. catarrhalis TbpB N-lobe peptide ydidanihgnrfrgs (peptide)
peptide: YDIDANIHGNRFRGS
notes: as for B1
B7: M. catarrhalis TbpB N-lobe peptide amgygmalskinlhn (peptide)
peptide: AMGYGMALSKINLHN
notes: as for B1
B8: M. catarrhalis TbpB N-lobe peptide wnlgpvggvfyngtt (peptide)
peptide: WNLGPVGGVFYNGTT
notes: as for B1
B9: M. catarrhalis TbpB N-lobe peptide avkykghwdfmtdva (peptide)
peptide: AVKYKGHWDFMTDVA
notes: as for B1
B10: M. catarrhalis TbpB N-lobe peptide kghwdfmtdvanrrn (peptide)
peptide: KGHWDFMTDVANRRN
notes: as for B1
B11: M. catarrhalis TbpB N-lobe peptide dfmtdvanrrnrfse (peptide)
peptide: DFMTDVANRRNRFSE
notes: as for B1

Tests used:
[1] = tested on: TbpB N-lobe from M. haemolytica; assay: bTf C-lobe overlapping peptide library probed with HRP-labelled M. haemolytica TbpB N-lobe; format: binding
Excerpt: (§1) Transferrin binding determinants from two bovine pathogens, M. haemolytica and H. somnus, as well as potential conserved transferrin binding determinants derived therefrom, were identified as described in Example 1 and shown in Table 4 below. Briefly, purified TbpB N-lobes from M. haemolytica and H. somnus were labelled with HRP and used to probe the bTf C-lobe overlapping peptide library. The peptides from the library that bound to the indicated TbpB N-lobe are listed in the column below the species name. The common overlap sequence from adjacent peptides probed with M. haemolytica (*), H. somnus (**) or both ( ) TbpB N-lobes are indicated for the indicated regions.

[2] = tested on: TbpB N-lobe from H. somnus; assay: bTf C-lobe overlapping peptide library probed with HRP-labelled H. somnus TbpB N-lobe; format: binding
Excerpt: as §1

HRP alone = target: T1, HRP alone; assay: SPOT peptide library 2 probed with HRP alone, chemiluminescence
[3] = target: T2, human transferrin (hTf), iron loaded (human, UniProt P02787 20-698); assay: SPOT peptide library 2 of TbpB N-lobe probed with HRP-hTf, chemiluminescence
T2 construct: Used as a labelled probe (beta-gal conjugate for library 1, HRP conjugate for library 2 and the solid-phase assay); also called β-gal-hTf; HRP conjugated hTf
T2 sequence (P02787 20-698 limits assumed): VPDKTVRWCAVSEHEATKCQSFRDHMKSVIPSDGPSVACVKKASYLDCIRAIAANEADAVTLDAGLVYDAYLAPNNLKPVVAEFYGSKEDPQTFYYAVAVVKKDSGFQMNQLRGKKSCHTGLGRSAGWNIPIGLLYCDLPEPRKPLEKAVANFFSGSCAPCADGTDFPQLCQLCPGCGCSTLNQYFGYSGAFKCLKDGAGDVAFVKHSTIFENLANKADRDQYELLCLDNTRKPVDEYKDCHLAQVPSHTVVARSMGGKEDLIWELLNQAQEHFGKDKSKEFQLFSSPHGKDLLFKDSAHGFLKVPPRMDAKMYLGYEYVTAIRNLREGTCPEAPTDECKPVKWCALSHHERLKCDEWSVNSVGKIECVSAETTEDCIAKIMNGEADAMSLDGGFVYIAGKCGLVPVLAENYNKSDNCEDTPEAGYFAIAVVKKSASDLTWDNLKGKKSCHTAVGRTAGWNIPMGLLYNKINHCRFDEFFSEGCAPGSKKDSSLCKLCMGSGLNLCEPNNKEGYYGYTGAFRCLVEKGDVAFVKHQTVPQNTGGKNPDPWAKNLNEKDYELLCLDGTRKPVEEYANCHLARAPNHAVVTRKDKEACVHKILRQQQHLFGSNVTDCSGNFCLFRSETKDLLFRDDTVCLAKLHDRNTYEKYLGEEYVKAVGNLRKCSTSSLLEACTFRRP

[4] = target: T2, human transferrin (hTf), iron loaded; assay: TbpB overlapping peptide library probed with labelled hTf as in Example 1

Molecule	binding to M. haemolytica TbpB N-lobe (bound peptide listed; None = did not bind) [1]	binding to H. somnus TbpB N-lobe (bound peptide listed; None = did not bind) [2]	binding result (HRP alone)	binding result [3]	binding result [4]
ANINWNNLKDKKSCH (TbpB N-lobes of Bovine Pathgens) [Peptide 5, bTf C-lobe library peptide]	ANINWNNLKDKKSCH	ANINWNNLKDKKSCH			
AWAKNLKKENFEVLC (TbpB N-lobes of Bovine Pathgens) [Peptide 10, bTf C-lobe library peptide]	AWAKNLKKENFEVLC	None			
CAIGHQERTKCDRWS (TbpB N-lobes of Bovine Pathgens) [Peptide 2, bTf C-lobe library peptide]	CAIGHQERTKCDRWS	CAIGHQERTKCDRWS			
CHLARGPNHAVVSRK (TbpB N-lobes of Bovine Pathgens) [Peptide 12, bTf C-lobe library peptide]	CHLARGPNHAVVSRK	CHLARGPNHAVVSRK			
HAVVSRKDKATCVEK (TbpB N-lobes of Bovine Pathgens) [Peptide 14, bTf C-lobe library peptide]	HAVVSRKDKATCVEK	HAVVSRKDKATCVEK			
HQERTKCDRWSGFSG (TbpB N-lobes of Bovine Pathgens) [Peptide 3, bTf C-lobe library peptide]	HQERTKCDRWSGFSG	HQERTKCDRWSGFSG			
KCLASIAKKTYDSYL (TbpB N-lobes of Bovine Pathgens) [Peptide 17, bTf C-lobe library peptide]	KCLASIAKKTYDSYL	KCLASIAKKTYDSYL			
KTSDANINWNNLKDK (TbpB N-lobes of Bovine Pathgens) [Peptide 4, bTf C-lobe library peptide]	KTSDANINWNNLKDK				
MVKWCAIGHQERTKC (TbpB N-lobes of Bovine Pathgens) [Peptide 1, bTf C-lobe library peptide]	MVKWCAIGHQERTKC	MVKWCAIGHQERTKC			
NLKKENFEVLCKDGT (TbpB N-lobes of Bovine Pathgens) [Peptide 11, bTf C-lobe library peptide]	NLKKENFEVLCKDGT	None			
NNNEAWAKNLKKENF (TbpB N-lobes of Bovine Pathgens) [Peptide 9, bTf C-lobe library peptide]	NNNEAWAKNLKKENF	NNNEAWAKNLKKENF			
NSNERYYGYTGAFRC (TbpB N-lobes of Bovine Pathgens) [Peptide 6, bTf C-lobe library peptide]	None	NSNERYYGYTGAFRC			
NTDGNNNEAWALK (NTDGNNNEAWAKNLK; TbpB N-lobes of Bovine Pathgens) [Peptide 8, bTf C-lobe library peptide]	None	NTDGNNNEAWALK			
RAMTNLRQCSTSKLL (TbpB N-lobes of Bovine Pathgens) [Peptide 18, bTf C-lobe library peptide]	RAMTNLRQCSTSKLL	RAMTNLRQCSTSKLL			
RDDTKCLASIAKKTY (TbpB N-lobes of Bovine Pathgens) [Peptide 16, bTf C-lobe library peptide]	RDDTKCLASIAKKTY	RDDTKCLASIAKKTY			
RGPNHAVVSRKDKAT (TbpB N-lobes of Bovine Pathgens) [Peptide 13, bTf C-lobe library peptide]	RGPNHAVVSRKDKAT	RGPNHAVVSRKDKAT			
RYYGYTGAFRCLVEK (TbpB N-lobes of Bovine Pathgens) [Peptide 7, bTf C-lobe library peptide]	None	RYYGYTGAFRCLVEK			

Molecule	binding to M. haemolytica TbpB N-lobe (bound peptide listed; None = did not bind) [1]	binding to H. somnus TbpB N-lobe (bound peptide listed; None = did not bind) [2]	binding result (HRP alone)	binding result [3]	binding result [4]
SRKDKATCVEKILNK (TbpB N-lobes of Bovine Pathgens) [Peptide 15, bTf C-lobe library peptide]	None	SRKDKATCVEKILNK			
B1			no binding	binds	
B2			no binding	binds	
B3			no binding	binds	
B4			no binding	binds	
B5			no binding	binds	
B6			no binding	binds	
B7			no binding	binds	
B8			no binding	binds	
B9			no binding	binds	
B10			no binding	binds	
B11			no binding	binds	
AALNLFDRNKPSLLN (library peptide) [H. influenzae TbpB peptide AALNLFDRNKPSLLN]					binds
APNSNENRHGQKYVY (library peptide) [H. influenzae TbpB peptide APNSNENRHGQKYVY]					binds
IQSWSLRDLPNKKFY (library peptide) [H. influenzae TbpB peptide IQSWSLRDLPNKKFY]					binds
SALPVGGVATYKGTW (library peptide) [H. influenzae TbpB peptide SALPVGGVATYKGTW]					binds
